Source: ChEMBL document CHEMBL1201862, “PubChem BioAssay data set” (2004)
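How tested: cells in 96-well plates exposed to compound for 48 hours at five concentrations. At the GI50, growth is halved.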 The source made the active and inactive calls. No stated cut-off is given here; in the data, active = GI50 up to about 1.1 µM and inactive = higher.

What was measured:
Experiment in all cases: NCI tumour cell line growth inhibition, 48 h
786-0 = test system: 786-0
ACHN = test system: ACHN
CCRF-CEM = test system: CCRF-CEM
HCT-15 = test system: HCT-15
HT-29 = test system: HT-29
Hs-578T = test system: Hs-578T
IGROV-1 = test system: IGROV-1
KM12 = test system: KM12
MDA-MB-231 = test system: MDA-MB-231
NCI-H460 = test system: NCI-H460
NCI-H522 = test system: NCI-H522
OVCAR-3 = test system: OVCAR-3
OVCAR-4 = test system: OVCAR-4
RPMI-8226 = test system: RPMI-8226
RXF 393 = test system: RXF 393
SF-268 = test system: SF-268
SK-OV-3 = test system: SK-OV-3
SNB-19 = test system: SNB-19
UO-31 = test system: UO-31
SF-539 = test system: SF-539

| Structure (SMILES) | GI50 (786-0) | GI50 (ACHN) | GI50 (CCRF-CEM) | GI50 (HCT-15) [µM] | GI50 (HT-29) | GI50 (Hs-578T) | GI50 (IGROV-1) | GI50 (KM12) | GI50 (MDA-MB-231) | GI50 (NCI-H460) | GI50 (NCI-H522) | GI50 (OVCAR-3) | GI50 (OVCAR-4) | GI50 (RPMI-8226) | GI50 (RXF 393) | GI50 (SF-268) | GI50 (SK-OV-3) | GI50 (SNB-19) | GI50 (UO-31) | GI50 (SF-539) |
| --- | --- | --- | --- | --- | --- | --- | --- | --- | --- | --- | --- | --- | --- | --- | --- | --- | --- | --- | --- | --- |
| C[C@]12CC[C@@H]3c4ccc(O)cc4CC[C@H]3[C@@H]1CC[C@@H]2OC(=O)CCc1ccccc1 | 34 µM (inactive) | 18.7 µM (inactive) | 22.5 µM (inactive) | 14.4 | 19.6 µM (inactive) | 5.14 µM (inactive) | 20.8 µM (inactive) | 27.7 µM (inactive) | 17.1 µM (inactive) | 19.1 µM (inactive) | 15.3 µM (inactive) | 20.5 µM (inactive) | 17.5 µM (inactive) | 15.7 µM (inactive) | 16.4 µM (inactive) | 17.8 µM (inactive) | 15.5 µM (inactive) | 18.5 µM (inactive) | 16 µM (inactive) | – |
| C=C(C)CN(CC#N)CC(=C)C | > 100 µM (inactive) | > 100 µM (inactive) | > 100 µM (inactive) | > 100 | > 100 µM (inactive) | 83.2 µM (inactive) | > 100 µM (inactive) | > 100 µM (inactive) | > 100 µM (inactive) | – | > 100 µM (inactive) | > 100 µM (inactive) | > 100 µM (inactive) | > 100 µM (inactive) | > 100 µM (inactive) | > 100 µM (inactive) | > 100 µM (inactive) | > 100 µM (inactive) | > 100 µM (inactive) | – |
| COc1nc(O)nc2c1C(c1ccc([N+](=O)[O-])cc1)c1c(OC)nc(O)nc1O2 | > 100 µM (inactive) | > 100 µM (inactive) | > 100 µM (inactive) | > 100 | > 100 µM (inactive) | > 100 µM (inactive) | > 100 µM (inactive) | > 100 µM (inactive) | > 100 µM (inactive) | > 100 µM (inactive) | > 100 µM (inactive) | > 100 µM (inactive) | > 100 µM (inactive) | > 100 µM (inactive) | > 100 µM (inactive) | > 100 µM (inactive) | > 100 µM (inactive) | > 100 µM (inactive) | > 100 µM (inactive) | – |
| COc1c(O)cc2c3c(ccnc13)NC=C2 | 41.9 µM (inactive) | 55.7 µM (inactive) | 4.78 µM (inactive) | > 100 | 16.9 µM (inactive) | > 100 µM (inactive) | > 100 µM (inactive) | > 100 µM (inactive) | 35.6 µM (inactive) | > 100 µM (inactive) | 1.63 µM (inactive) | 12.4 µM (inactive) | > 100 µM (inactive) | > 100 µM (inactive) | 18.1 µM (inactive) | – | 83.2 µM (inactive) | > 100 µM (inactive) | 36.8 µM (inactive) | – |
| COc1cc(OC)cc(Oc2nc3ccccc3nc2C(=O)O)c1 | > 100 µM (inactive) | > 100 µM (inactive) | > 100 µM (inactive) | > 100 | > 100 µM (inactive) | > 100 µM (inactive) | > 100 µM (inactive) | > 100 µM (inactive) | > 100 µM (inactive) | > 100 µM (inactive) | > 100 µM (inactive) | > 100 µM (inactive) | 0.6 µM (active) | > 100 µM (inactive) | > 100 µM (inactive) | > 100 µM (inactive) | > 100 µM (inactive) | > 100 µM (inactive) | > 100 µM (inactive) | – |
| CS(=O)(=O)CCC1CCC(=O)O1 (stereo unspecified) | > 100 µM (inactive) | 31.5 µM (inactive) | > 10 µM (inactive) | > 100 | > 100 µM (inactive) | 49 µM (inactive) | > 100 µM (inactive) | > 100 µM (inactive) | > 100 µM (inactive) | 69.5 µM (inactive) | 31.2 µM (inactive) | > 100 µM (inactive) | – | > 100 µM (inactive) | 49.2 µM (inactive) | 51.9 µM (inactive) | – | > 100 µM (inactive) | > 100 µM (inactive) | > 100 µM (inactive) |
